The values that follow come from patent publication US20250346593A1, “IMIDAZO(1,2-1)PYRIDINE DERIVATIVES AS RIPK2 INHIBITORS” (Interline Therapeutics, Inc., priority 2022, published 2025).

Like-named read-outs stand apart in the source and are kept apart here.

The target in assay [1] is GST-RIPK2 fusion protein (human RIPK2 amino acids 1-310) (Homo sapiens (Human), UniProt O43353). The assay is described as follows: RIPK2 binding competition assay (TR-FRET, Tracer 199). On the technique in general: In TR-FRET formats the signal depends on donor and acceptor labels being close together.
Assay [2] has as its system NF-κB pathway (SEAP) in THP1-Dual cells. The assay is described as follows: THP-1 Dual cell SEAP assay (L18-MDP stimulated). Format: cell-based. The note with it: Homo sapiens, THP1-Dual, read-out: NFkB THP1 IC50.
Setting [3] is: read-out: RIPK2 IC50, RIPK2 binding competition assay.

For orientation: IC50 means the concentration that gives 50% inhibition.

Sequence of GST-RIPK2 fusion protein (human RIPK2 amino acids 1-310) (O43353 1-310): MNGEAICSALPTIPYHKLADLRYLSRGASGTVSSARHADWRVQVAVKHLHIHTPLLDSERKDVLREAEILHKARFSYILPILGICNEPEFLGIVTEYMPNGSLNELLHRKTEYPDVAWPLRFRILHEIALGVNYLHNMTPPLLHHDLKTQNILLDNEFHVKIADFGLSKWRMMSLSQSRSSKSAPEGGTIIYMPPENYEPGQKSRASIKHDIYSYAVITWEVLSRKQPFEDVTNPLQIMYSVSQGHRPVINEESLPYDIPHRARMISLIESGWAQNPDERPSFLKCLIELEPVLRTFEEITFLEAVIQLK

Consider `COc1cc2ncc(-c3cc(F)c(N)nc3F)n2cc1S(=O)(=O)C(C)(C)C(F)F` [Example 154, 5-(6-((1,1-difluoro-2-methylpropan-2-yl)sulfonyl)-7-methoxyimidazo[1,2-a]pyridin-3-yl)-3,6-difluoropyridin-2-amine], for which the IC50 in assay [1] lay in the range of 2.5 to 20 nM; in assay [2], 50 to 250 nM.

With `CCOc1cc2ncc(-c3cc(F)c(N)nc3C)n2cc1S(=O)(=O)C(C)C` [Example 155, 5-(7-ethoxy-6-(isopropylsulfonyl)imidazo [1,2-a]pyridin-3-yl)-3-fluoro-6-methylpyridin-2-amine], the IC50 in assay [1] (setting [3]) is > 20 nM; in assay [2], > 1000 nM.

As to `COc1cc2ncc(-c3cccc(CS(C)(=O)=O)c3)n2cc1S(=O)(=O)C(C)(C)C` [Example 156, 6-(tert-butylsulfonyl)-7-methoxy-3-(3-((methylsulfonyl)methyl)phenyl)imidazo[1,2-a]pyridine], the values for the IC50 in assay [1] (setting [3]) and in assay [2] were > 20 nM and > 1000 nM, respectively.

As to `COc1cc2ncc(-c3cc(N)cc(F)c3)n2cc1S(=O)(=O)C(C)(C)C` [Example 157, 3-(6-(tert-butylsulfonyl)-7-methoxyimidazo[1,2-a]pyridin-3-yl)-5-fluoroaniline], the IC50 lay within 2.5 to 20 nM in assay [1] and 50 to 250 nM in assay [2].

Regarding `COc1cc2ncc(-c3ccc(OC)c(Cl)n3)n2cc1S(=O)(=O)C(C)(C)C` [Example 158, 6-(tert-butylsulfonyl)-3-(6-chloro-5-methoxypyridin-2-yl)-7-methoxyimidazo[1,2-a]pyridine], the IC50 in assay [1] (setting [3]) is > 20 nM; in assay [2], > 1000 nM.

Regarding `CCCS(=O)(=O)Nc1nc(-c2cnc3cc(OC)c(S(=O)(=O)C(C)(C)C)cn23)ccc1CC` [Example 160, N-(6-(6-(tert-butylsulfonyl)-7-methoxyimidazo[1,2-a]pyridin-3-yl)-3-ethylpyridin-2-yl)propane-1-sulfonamide], the IC50 was > 20 nM in assay [1] (setting [3]) and > 1000 nM in assay [2].

`CCCS(=O)(=O)Nc1cc(OC)cc(-c2cnc3cc(OC)c(S(=O)(=O)C(C)(C)C)cn23)n1` [Example 161, N-(6-(6-(tert-butylsulfonyl)-7-methoxyimidazo[1,2-a]pyridin-3-yl)-4-methoxypyridin-2-yl)propane-1-sulfonamide]: the IC50 in assay [1] lay within 2.5 to 20 nM; in assay [2] it was 250 to 1000 nM.

`CNc1ccnc(-c2cnc3cc(OC)c(S(=O)(=O)C(C)(C)C)cn23)c1` [Example 162, 2-(6-(tert-butylsulfonyl)-7-methoxyimidazo[1,2-a]pyridin-3-yl)-N-methylpyridin-4-amine]: the values for the IC50 in assay [1] (setting [3]) and in assay [2] were > 20 nM and > 1000 nM, respectively.

In the case of `CCCS(=O)(=O)Nc1nc(-c2cnc3cc(OC)c(S(=O)(=O)C(C)(C)C)cn23)ccc1C` [Example 163, N-(6-(6-(tert-butylsulfonyl)-7-methoxyimidazo[1,2-a]pyridin-3-yl)-3-methylpyridin-2-yl)propane-1-sulfonamide], the IC50 in assay [1] (setting [3]) was > 20 nM; in assay [2] it was > 1000 nM.

In the case of `COc1cc2ncc(-c3cnc(N)c(F)c3F)n2cc1S(=O)(=O)C(C)(C)C` [Example 164, 5-(6-(tert-butylsulfonyl)-7-methoxyimidazo[1,2-a]pyridin-3-yl)-3,4-difluoropyridin-2-amine], the figures for the IC50 in assay [1] (setting [3]) and in assay [2] were > 20 nM and > 1000 nM, respectively.

For the molecule `COc1cc2ncc(-c3csc(N)n3)n2cc1S(=O)(=O)C(C)(C)C` [Example 165, 4-(6-(tert-butylsulfonyl)-7-methoxyimidazo[1,2-a]pyridin-3-yl)thiazol-2-amine], the IC50 in assay [1] was 2.5 to 20 nM; in assay [2], 250 to 1000 nM.

As for `COc1cc2ncc(-c3cnc(N)s3)n2cc1S(=O)(=O)C(C)(C)C` [Example 166, 5-(6-(tert-butylsulfonyl)-7-methoxyimidazo[1,2-a]pyridin-3-yl)thiazol-2-amine], the results for the IC50 in assay [1] (setting [3]) and in assay [2] were > 20 nM and > 1000 nM, respectively.

In the case of `COc1cc2ncc(-c3cc(F)c(N)nc3O)n2cc1S(=O)(=O)C(C)(C)C` [Example 167, 6-amino-3-(6-(tert-butylsulfonyl)-7-methoxyimidazo[1,2-a]pyridin-3-yl)-5-fluoropyridin-2-ol], the IC50 in assay [1] (setting [3]) was > 20 nM; in assay [2], > 1000 nM.

For `COc1ccc(CNc2cc(-c3cnc4ccc(S(=O)(=O)C(C)(C)C)cn34)cc(F)n2)cc1` [Example 168, 4-(6-(tert-butylsulfonyl)imidazo[1,2-a]pyridin-3-yl)-6-fluoro-N-(4-methoxybenzyl)pyridin-2-amine], the values for the IC50 in assay [1] and in assay [2] were 1 to 2.5 nM and 250 to 1000 nM, respectively.

For `CC(C)(C)S(=O)(=O)c1ccc2ncc(-c3cc(F)nc(NCCC4(O)CCC4)c3)n2c1` [Example 171, 1-(2-((4-(6-(tert-butylsulfonyl)imidazo [1,2-a]pyridin-3-yl)-6-fluoropyridin-2-yl)amino)ethyl)cyclo-butan-1-ol], the IC50 in assay [1] was 1 to 2.5 nM; in assay [2], < 50 nM.

With `CC(C)(O)CCNc1cc(-c2cnc3ccc(S(=O)(=O)C(C)(C)C)cn23)cc(F)n1` [Example 174, 4-((4-(6-(tert-butylsulfonyl)imidazo [1,2-a]pyridin-3-yl)-6-fluoropyridin-2-yl)amino)-2-methylbutan-2-ol], the IC50 lay in the range of 2.5 to 20 nM in assay [1] and 50 to 250 nM in assay [2].

Take `COc1cc2ncc(-c3cc(F)nc(NCc4ccccc4)c3)n2cc1S(=O)(=O)C(C)(C)C` [Example 175, N-benzyl-4-(6-(tert-butylsulfonyl)-7-methoxyimidazo[1,2-a]pyridin-3-yl)-6-fluoropyridin-2-amine]: the results for the IC50 in assay [1] and in assay [2] were < 1 nM and < 50 nM, respectively.

For the molecule `COc1cc2ncc(-c3cc(F)nc(NCCC(C)(C)OC)c3)n2cc1S(=O)(=O)C(C)(C)C` [Example 176, 4-(6-(tert-butylsulfonyl)-7-methoxyimidazo[1,2-a]pyridin-3-yl)-6-fluoro-N-(3-methoxy-3-methylbutyl)pyridin-2-amine], the IC50 in assay [1] (setting [3]) is < 1 nM; in assay [2], < 50 nM.

Take `COc1cc2ncc(-c3cc(F)nc(NC(C)C)c3)n2cc1S(=O)(=O)C(C)(C)C` [Example 178, 4-(6-(tert-butylsulfonyl)-7-methoxyimidazo[1,2-a]pyridin-3-yl)-6-fluoro-N-isopropylpyridin-2-amine]: the IC50 was < 1 nM in assay [1] (setting [3]) and < 50 nM in assay [2].

As to `CNc1cc(-c2cnc3cc(OC)c(S(=O)(=O)C(C)(C)C)cn23)cc(F)n1` [Example 179, 4-(6-(tert-butylsulfonyl)-7-methoxyimidazo[1,2-a]pyridin-3-yl)-6-fluoro-N-methylpyridin-2-amine], the values for the IC50 in assay [1] (setting [3]) and in assay [2] were < 1 nM and < 50 nM, respectively.

Consider `COc1cc2ncc(-c3cc(F)nc(NC4CCC4)c3)n2cc1S(=O)(=O)C(C)(C)C` [Example 180, 4-(6-(tert-butylsulfonyl)-7-methoxyimidazo[1,2-a]pyridin-3-yl)-N-cyclobutyl-6-fluoropyridin-2-amine], for which the IC50 in assay [1] (setting [3]) is < 1 nM; in assay [2], 50 to 250 nM.

`CCCNc1cc(-c2cnc3cc(OC)c(S(=O)(=O)C(C)(C)C)cn23)cc(F)n1` [Example 181, 4-(6-(tert-butylsulfonyl)-7-methoxyimidazo[1,2-a]pyridin-3-yl)-6-fluoro-N-propylpyridin-2-amine]: the values for the IC50 in assay [1] (setting [3]) and in assay [2] were < 1 nM and < 50 nM, respectively.

`COc1cc2ncc(-c3cc(F)nc(NCCCC(C)(C)O)c3)n2cc1S(=O)(=O)C(C)(C)C` [Example 182, 5-((4-(6-(tert-butylsulfonyl)-7-methoxyimidazo[1,2-a]pyridin-3-yl)-6-fluoropyridin-2-yl)amino)-2-methylpentan-2-ol]: the IC50 is < 1 nM in assay [1] (setting [3]) and < 50 nM in assay [2].

Consider `COc1cc2ncc(-c3cc(F)nc(NCCCO)c3)n2cc1S(=O)(=O)C(C)(C)C` [Example 183, 3-((4-(6-(tert-butylsulfonyl)-7-methoxyimidazo[1,2-a]pyridin-3-yl)-6-fluoropyridin-2-yl)amino)propan-1-ol], for which the IC50 in assay [1] (setting [3]) is < 1 nM; in assay [2], < 50 nM.

`COc1cc2ncc(-c3cc(F)nc(NCc4ccc(=O)[nH]c4)c3)n2cc1S(=O)(=O)C(C)(C)C` [Example 184, 5-(((4-(6-(tert-butylsulfonyl)-7-methoxyimidazo[1,2-a]pyridin-3-yl)-6-fluoropyridin-2-yl)amino)methyl) pyridin-2(1H)-one]: the IC50 in assay [1] (setting [3]) is < 1 nM; in assay [2], 50 to 250 nM.

On to `COc1cc2ncc(-c3cc(F)nc(NCC4CCC(=O)NC4)c3)n2cc1S(=O)(=O)C(C)(C)C` (stereo not drawn) [Example 185, 5-(((4-(6-(tert-butylsulfonyl)-7-methoxyimidazo[1,2-a]pyridin-3-yl)-6-fluoropyridin-2-yl)amino)methyl) piperidin-2-one], for which the IC50 in assay [1] (setting [3]) was < 1 nM; in assay [2], < 50 nM.

As to `COc1cc2ncc(-c3cc(F)nc(N(C)C)c3)n2cc1S(=O)(=O)C(C)(C)C` [Example 186, 4-(6-(tert-butylsulfonyl)-7-methoxyimidazo[1,2-a]pyridin-3-yl)-6-fluoro-N,N-dimethylpyridin-2-amine], the IC50 was < 1 nM in assay [1] (setting [3]) and < 50 nM in assay [2].

Consider `COc1cc2ncc(-c3cc(F)nc(NCC4CCNC(=O)C4)c3)n2cc1S(=O)(=O)C(C)(C)C` (stereo not drawn) [Example 188, 4-(((4-(6-(tert-butylsulfonyl)-7-methoxyimidazo[1,2-a]pyridin-3-yl)-6-fluoropyridin-2-yl)amino)methyl) piperidin-2-one], for which the IC50 in assay [1] (setting [3]) is < 1 nM; in assay [2], < 50 nM.

Take `COc1cc2ncc(-c3cc(F)nc(N[C@H]4C[C@H](O)C4)c3)n2cc1S(=O)(=O)C(C)(C)C` [Example 193, (1r,3r)-3-((4-(6-(tert-butylsulfonyl)-7-methoxyimidazo[1,2-a]pyridin-3-yl)-6-fluoropyridin-2-yl)amino)cyclobutan-1-ol]: the values for the IC50 in assay [1] (setting [3]) and in assay [2] were < 1 nM and < 50 nM, respectively.

For `COc1cc2ncc(-c3cc(F)nc(NCCCN)c3)n2cc1S(=O)(=O)C(C)(C)C` [Example 194, N1-(4-(6-(tert-butylsulfonyl)-7-methoxyimidazo[1,2-a]pyridin-3-yl)-6-fluoropyridin-2-yl)propane-1,3-diamine], the values for the IC50 in assay [1] (setting [3]) and in assay [2] were < 1 nM and < 50 nM, respectively.
